In patent US11092596B2, “Material and method to screen proteasome stimulators” (Purdue Research Foundation, priority 2017, dated 2021):

Experiments:
Assay type in all cases: biochemical
[1] = target: trypsin-like activity of the 20S CP (Homo sapiens, UniProt Q99436); assay: Kinetic assay, T-L FRET reporter hydrolysis by purified 20S CP; conditions: 25 μM compound, T-L FRET reporter; basal level set to 100%
Method: (§1) Plate preparation for the kinetic assay was performed similarly for all assays. All 96-well plates contained the following in triplicate: reporter background, containing reporter only, and control wells, containing reporter and purified 20S CP. It was determined that each well will contain a total volume of 50 μL. To each well was added 40 μL of the coumarin or FRET reporters (in Tris-HCl, 50 mM, pH 7.7). To the reporter background wells was added 7.5 μL Tris-HCl and 2.5 μL of the solvent in which the compound of interest was dissolved or diluted. Similarly, to the control wells was added 2.5 μL Tris-HCl and 2.5 μL of the solvent in which the compound of interest was dissolved or diluted. To the test wells was added 2.5 μL Tris-HCl and 2.5 μL of the compound of interest at a predetermined concentration. Immediately prior to running the assay on the Synergy 4 Plate Reader, 5 μL purified 20S proteasome (90 nM in Tris-HCl) was added to the control and test wells.
The Synergy 4 Plate Reader was set to heat the plate at 37° C. and read fluorescence every 2 min over a 40 min period. The excitation and emission wavelengths were set according to the reporter. For the FRET reporter, the excitation and emission wavelengths were set to 335 nm and 493 nm, respectively, corresponding to the excitation and emission wavelengths of the Edans fluorophore. […]
Stimulation of the 20S proteasome with SDS was determined using both the coumarin and FRET reporters for the chymotrypsin-like and trypsin-like activities of the 20S CP. […] Immediately prior to running the assay on the Synergy 4 Plate Reader, 5 μL purified 20S proteasome (90 nM in Tris-HCl) was added to the control and test wells. The assay was performed using the Synergy 4 plate reader as described for the general screening kinetic assay procedure. […]
To each well was added 40 μL 20 μM T-L FRET reporter (in Tris-HCl, 50 mM, pH 7.7). […] Immediately prior to running the assay on the Synergy 4 Plate Reader, 5 μL purified 20S proteasome (90 nM in Tris-HCl) was added to the control and test wells.

[2] = target: T1, chymotrypsin-like activity of the 20S CP (Homo sapiens, UniProt P28074); assay: Kinetic assay, CT-L FRET reporter hydrolysis by purified 20S CP; conditions: CT-L FRET reporter; for EC50: dose response 0.78125-400 μM, triplicate, read-out: EC50 (concentration of half of the maximum stimulation) for 20S CP stimulation
T1 construct: 5 μL purified 20S proteasome (90 nM in Tris-HCl) was added to the control and test wells
Method: as §1
The Synergy 4 Plate Reader was set to heat the plate at 37° C. and read fluorescence every 2 min over a 40 min period. The excitation and emission wavelengths were set according to the reporter. For the FRET reporter, the excitation and emission wavelengths were set to 335 nm and 493 nm, respectively, corresponding to the excitation and emission wavelengths of the Edans fluorophore. For the coumarin reporter, the excitation and emission wavelengths were set to 380 nm and 460 nm, respectively.
(§2) AM-404 was used as a positive control compound to test the dose-response screening capabilities of the CT-L FRET reporter. The following concentrations of AM-404 were tested in triplicate: 50, 25, and 12.5 μM. To each well was added 40 μL 20 μM CT-L FRET (in Tris-HCl, 50 mM, pH 7.7). To the reporter background wells was added 5 μL Tris-HCl and 5 μL 1:1 Tris-HCl:DMSO. Similarly, to the control wells was added 5 μL 1:1 Tris-HCl:DMSO. To the 50 μM AM-404 test wells was added 2.5 μL Tris-HCl and 2.5 μL 1000 μM AM-404 in DMSO. To the 25 μM AM-404 test wells was added 2.5 μL Tris-HCl and 2.5 μL 500 μM AM-404 in DMSO. To the 12.5 μM AM-404 test wells was added 2.5 μL Tris-HCl and 2.5 μL 250 μM AM-404 in DMSO. Immediately prior to running the assay on the Synergy 4 Plate Reader, 5 μL purified 20S proteasome (90 nM in Tris-HCl) was added to the control and test wells. The assay was performed using the Synergy 4 plate reader as described for the general screening kinetic assay procedure.
as §2, with “Fenofibrate was” for “AM-404 was”, “a negative” for “a positive”, “of fenofibrate” for “of AM-404”, “μM fenofibrate” for “μM AM-404”, “procedure. […]” for “procedure.”

[3] = target: T2, chymotrypsin-like activity of the 26S proteasome (Homo sapiens, UniProt P28074); assay: Kinetic assay, CT-L FRET reporter with 26S proteasome; conditions: 25 μM compound
T2 construct: 5 μL purified 26S proteasome (62.5 μg/mL in Tris-HCl) was added to the control and test wells
Method: Compounds 1, 2, and 3 were screened with the 26S proteasome in triplicate using the CT-L FRET reporter.
To each well was added 40 μL 20 μM CT-L FRET reporter (in Tris-HCl, 50 mM, pH 7.7). To the reporter background wells was added 5 μL Tris-HCl and 5 μL 1:1 Tris-HCl:DMSO. Similarly, to the control wells was added 5 μL 1:1 Tris-HCl:DMSO. To the test wells was added 2.5 μL Tris-HCl and 2.5 μL of a 500 μM solution of the compound of interest in DMSO. […] Immediately prior to running the assay on the Synergy 4 Plate Reader, 5 μL purified 26S proteasome (62.5 μg/mL in Tris-HCl) was added to the control and test wells.
The assay was performed using the Synergy 4 plate reader as described for the general screening kinetic assay procedure.

| 20S CP stimulation over basal level (dose response curve) ([2]; maximum of dose response curve) | SMILES | stimulation of the trypsin-like activity of the 20S CP [1] | EC50 [2] | ability to stimulate the 26S proteasome's CT-L activity [3] |
| --- | --- | --- | --- | --- |
| 100% | C[C@H]1[C@H](C)CC[C@]2(C(=O)O)CC[C@]3(C)C(=CC[C@@H]4[C@@]5(C)CC[C@H](O)C(C)(C)[C@@H]5CC[C@]43C)[C@H]12 [Compound 2, ursolic acid] | 234% | 14 µM | Neither molecules 2 or 3 affected the rate |
|  | Cc1c(C)c2c(c(C)c1OC(=O)CCC(=O)O)CC[C@@](C)(CCC[C@H](C)CCC[C@H](C)CCCC(C)C)O2 [Compound 3, vitamin E succinate] | 146% | 7 µM | Neither molecules 2 or 3 affected the rate |
